Data from US20140088187A1, “ANDROGEN RECEPTOR INHIBITORS AND METHODS OF USE THEREOF” (BETH ISRAEL DEACONESS MEDICAL CENTER, priority 2010, published 2014).
“Also recorded” adds a separate entry of the source.

Legend:
wildtype AR = target: T1, wildtype AR (Homo sapiens, UniProt P10275); assay: AR-responsive firefly luciferase reporter assay in COS7 cells transfected with AR (DHT-stimulated AR activity); type: cell-based; details: relative to initial chemotype A compounds; data not shown
T1 construct: The AR WT construct expresses full-length human AR under cmv promoter control; expressed in transfected cells; host or cells: COS7
T1 sequence (P10275 1-920): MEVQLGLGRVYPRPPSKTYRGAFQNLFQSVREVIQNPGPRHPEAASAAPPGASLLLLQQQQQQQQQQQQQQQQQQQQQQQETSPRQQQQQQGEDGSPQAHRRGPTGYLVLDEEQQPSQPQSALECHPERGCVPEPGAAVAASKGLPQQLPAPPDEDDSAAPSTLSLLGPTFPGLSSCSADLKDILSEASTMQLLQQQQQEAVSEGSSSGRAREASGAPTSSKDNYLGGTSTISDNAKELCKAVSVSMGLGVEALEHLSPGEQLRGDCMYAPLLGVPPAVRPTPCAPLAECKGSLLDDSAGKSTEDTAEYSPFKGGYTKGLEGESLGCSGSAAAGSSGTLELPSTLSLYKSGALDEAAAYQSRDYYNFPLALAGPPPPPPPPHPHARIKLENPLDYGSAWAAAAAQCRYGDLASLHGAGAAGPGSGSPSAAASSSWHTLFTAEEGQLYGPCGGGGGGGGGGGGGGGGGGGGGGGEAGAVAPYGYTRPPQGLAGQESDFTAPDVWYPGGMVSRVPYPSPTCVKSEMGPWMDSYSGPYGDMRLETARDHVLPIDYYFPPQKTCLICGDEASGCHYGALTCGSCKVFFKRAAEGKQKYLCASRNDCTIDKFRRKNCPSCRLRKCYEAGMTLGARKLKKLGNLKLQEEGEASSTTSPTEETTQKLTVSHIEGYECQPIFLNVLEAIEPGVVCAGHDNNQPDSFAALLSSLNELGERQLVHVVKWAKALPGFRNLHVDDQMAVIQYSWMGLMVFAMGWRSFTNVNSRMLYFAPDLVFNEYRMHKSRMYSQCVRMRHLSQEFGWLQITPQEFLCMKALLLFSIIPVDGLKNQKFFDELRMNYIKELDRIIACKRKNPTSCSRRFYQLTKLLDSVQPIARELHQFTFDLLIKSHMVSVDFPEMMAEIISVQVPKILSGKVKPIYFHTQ
Source text: FIG. 13. Antagonist activity of generation 4 compounds at 25 micromolar. […] Reporter firefly luciferase is corrected for control Renilla activity.
FIG. 14. Antagonist activity of generation 4 compounds at 1-10 micromolar. […] Reporter firefly luciferase is corrected for control Renilla activity. […]
The AR-responsive firefly luciferase reporter consists of 4 tandem repeats of the consensus steroid response element cloned upstream of the pGL3-Basic Luciferase vector (Promega). The AR WT construct expresses full-length human AR under cmv promoter control.
Luciferase activity was determined using the Dual-Luciferase Reporter Assay System (Promega E1910).

[1] = target: T2, endogenous wildtype AR in VCaP cells (Homo sapiens, UniProt P10275); assay: AR protein degradation with CHX in VCaP cells; type: cell-based; details: CHX 100 nM, A89 50 μM
T2 construct: endogenous in cells; host or cells: VCaP
T2 sequence (P10275 1-920): T1 sequence (P10275 1-920)
Experimental: As LNCaP and C4-2 cells express the T877A mutant AR, we next examined PC3-AR cells expressing wildtype AR. As observed in C4-2 cells, A89 caused a decrease in AR protein levels (FIG. 10d). To further validate that this was due to increased AR protein degradation, we pretreated these cells with A89 for 2 hours and then blocked new protein synthesis with cycloheximide (CHX). […] We finally examined VCaP cells.

AR WT = target: T3, AR WT (Homo sapiens, UniProt P10275); assay: AR expression levels in transiently transfected COS7 cells, AR WT; type: cell-based; details: 24 hours
T3 construct: The AR WT construct expresses full-length human AR under cmv promoter control; expressed in transfected cells; host or cells: COS7
T3 sequence (P10275 1-920): T1 sequence (P10275 1-920)

AR = target: T4, AR (Mus musculus, UniProt P19091); assay: Dose ranging experiment in intact adult male mice (seminal vesicles, prostate epithelium); type: in vivo
T4 construct: we first treated adult male mice with compound A89 in a dose ranging experiment; from tissue; host or cells: seminal vesicles and prostate epithelium of intact adult male mice
T4 sequence (P19091 1-899): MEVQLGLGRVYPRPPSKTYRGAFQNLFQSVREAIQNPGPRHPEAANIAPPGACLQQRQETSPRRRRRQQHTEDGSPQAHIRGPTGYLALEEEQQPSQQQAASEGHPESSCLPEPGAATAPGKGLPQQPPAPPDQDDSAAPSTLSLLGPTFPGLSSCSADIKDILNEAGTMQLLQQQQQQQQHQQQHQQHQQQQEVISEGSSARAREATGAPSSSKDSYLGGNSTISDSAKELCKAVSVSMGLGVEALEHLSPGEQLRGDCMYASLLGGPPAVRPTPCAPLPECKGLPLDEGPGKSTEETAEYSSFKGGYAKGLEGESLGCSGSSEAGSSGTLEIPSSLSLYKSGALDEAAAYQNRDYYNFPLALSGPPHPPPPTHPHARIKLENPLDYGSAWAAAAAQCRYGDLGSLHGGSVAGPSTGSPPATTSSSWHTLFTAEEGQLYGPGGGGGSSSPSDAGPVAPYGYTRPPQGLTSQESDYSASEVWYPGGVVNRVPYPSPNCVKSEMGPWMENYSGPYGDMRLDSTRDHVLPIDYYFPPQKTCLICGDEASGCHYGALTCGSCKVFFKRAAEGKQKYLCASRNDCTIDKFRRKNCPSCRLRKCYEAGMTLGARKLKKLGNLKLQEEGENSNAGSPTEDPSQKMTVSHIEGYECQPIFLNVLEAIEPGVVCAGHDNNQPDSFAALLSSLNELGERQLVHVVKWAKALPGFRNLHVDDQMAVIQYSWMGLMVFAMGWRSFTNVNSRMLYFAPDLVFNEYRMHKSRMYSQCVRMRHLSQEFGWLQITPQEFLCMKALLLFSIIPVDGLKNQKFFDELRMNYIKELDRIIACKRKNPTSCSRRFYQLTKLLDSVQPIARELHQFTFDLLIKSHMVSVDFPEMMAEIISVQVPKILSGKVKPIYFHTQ
Experimental: FIG. 17. Compound A89 maintains activity in vivo and is efficacious in a CRPC xenograft model. (a) Morphological changes in seminal vesicles of intact adult male mice following treatment with DMSO vehicle, Bic (0.5 mg/day) or A89 (mg/day as indicated) for 7 days. (b) H&E stained cross-sections of prostate ductal epithelium from above mice treated with DMSO, Bic, or A89 (10 mg/day). (c) AR and Ki-67 staining in pre- and post-castration relapsed VCaP xenograft tumor sections following treatment with A89 (5 mg/day) or Bic (0.5 mg/day) for 7 days. (d) mRNA levels of AR and AR-target genes in post-castration relapsed VCaP xenograft tumors following treatment with A89 (5 mg/day) for 7 days. Error bars represent S.E.M.
To evaluate the activity of the chemotype A compounds in vivo we first treated adult male mice with compound A89 in a dose ranging experiment from 0.5 mg/day to 10 mg/day via intraperitoneal injection for 7 days. […] We next evaluated A89 in VCaP xenograft tumors that had relapsed following an initial response to castration, which is a model of CRPC.

degradation of endogenous wildtype AR [1]: increased degradation
AR WT protein levels (AR WT): decreased in a dose dependent manner
general health of mice (AR; 0.5 mg/day to 10 mg/day intraperitoneal injection for 7 days): outwardly healthy
androgen sensitive prostate epithelium (AR; adult male mice, 7 days (10 mg/day in FIG. 17b)): atrophy
seminal vesicles dose-dependent involution, beginning at dose (AR; adult male mice, intraperitoneal injection for 7 days): ≥ 2.5 mg/day
SMILES: CCOc1cc(F)c(S(=O)(=O)NCc2ccc3c(c2)OCO3)cc1F [Compound A89, N-(1,3-benzodioxol-5-ylmethyl)-4-ethoxy-2,5-difluorobenzenesulfonamide]
potency in antagonizing AR activity in luciferase reporter assays (wildtype AR): increased potency; also recorded: relatively higher potency
